Entries after “also recorded” stand apart in the source; their conditions may differ. Where two headings read alike, the source gives them in different places. Square brackets hold non-standard residues; d marks the D form. Peptide text beside a SMILES is read from it. αMeP = C[C@@]1(C(=O)O)CCCN1
Tests used:
[1] = Pharmacokinetic study in C57BL/6J mice (plasma and tissues); format: in vivo
RTT tadpoles (MeCP2 KD) = assay: Tadpole tracking system: swimming behavior of RTT (MeCP2 KD) tadpoles; format: in vivo, Xenopus; conditions: for swimming pattern of treated RTT tadpoles: n=5 per dish
Experimental: FIGS. 4A-4F. FIG. 4A) Occupation density plot from tracking tadpoles swimming and resting locations over a 10-minute recording session (n=5 per 10 ml dish, at 30 frames per seconds), where high density means the tadpoles where recorded at that XY coordinate most frequently. FIG. 4A) wild-type tadpoles (WT) normal behavior is to swim along the edge of the dish in an area termed the “outer area”, while the area within the white center circle is termed the “inner area” and is mostly dark. […] Additionally, RTT tadpoles cover less distance in the outer area, preferring to cross the inner area. FIG. 4C) example of multiple parameters derived from the tracking system, highlighting metrics corresponding to behavioral phenotypes. FIG. 4D) one such metric of epoch-based entropy which captures information about the swimming behavior over a recording session and how a group diverges from the others, in this case indicating favorable improvement in RTT tadpole symptoms treated with RVL002 (epoch=15-second). FIG. 4E) one such metric is the inner area circular swimming. Locomotor assays is commonly used in mouse model of neurological diseases, it can also assess the behavior in tadpole models. Both vorinostat and RVL002 reduced the average inner dish circular swimming behavior in KD tadpoles compared to vehicle controls.
(§1) Briefly, Xenopus embryos at the 4-cell stage were microinjected with Cas9 protein and guide RNA complex aimed at 3 sites of the MeCP2 gene corresponding to DNA binding and the mutation locations of the most severe patient cases. Embryos could develop into free-swimming tadpoles, and no effect on viability was observed relative to controls. Tadpoles presented a spectrum of behavioral phenotypes, including seizures. qPCR analysis confirmed a range of MeCP2 KO of 5-95% of the cells, and immunostaining of tissue sections indicated mosaic and overall reduction of MeCP2 protein levels and a-tubulin acetylation (Novak et al. 2022). Based on seizure and behavioral screens in RTT tadpoles, we evaluate the tolerability and efficacy of any number of predicted compounds. The top performing drug is vorinostat, a hydroxamic acid pan-Histone Deacetylase inhibitor (HDACi), approved for cutaneous T cell lymphoma (Novak et al., 2022). […] These six scores are then summed to provide a cumulative severity score from 0-12 (Guy et al., 2001, 2007).
(§2) Using our tadpole tracking system, we evaluated the effect of vorinostat and RVL002 on WT and RTT tadpoles swimming behavior (FIGS. 4A-4F). WT tadpoles spend most of the time swimming along the outside of the dish and only occasionally cross through the center of the dish, while RTT tadpoles swim more erratically and tend to dart through the center of the dish and stop more frequently (FIG. 4A-4B, n=5 per dish). These abnormal swimming patterns could be related to motor irregularities and seizures seen in human RTT patients. […] The entropy captures deviations in swimming behavior, including distance and area explored. […] We compared the gene expression signatures of vorinostat- and RVL002-treated tadpole RTT model animals and wild type controls. In wild type animals, 100% of genes with significant expression changes (fold change >2, p<0.05) due to vorinostat treatment were accounted for by RVL002 treatment. In RTT animals, RVL002 replicated 92.5% of gene expression changes.

RTT tadpoles = assay: Viability measurement in WT and RTT tadpoles; format: in vivo, Xenopus; conditions: RVL002 100 uM compared with vorinostat 50 uM, n=10 per condition
[2] = tested on: tadpole RTT model animals and wild type controls; assay: Gene expression signatures of vorinostat- and RVL002-treated tadpoles; format: in vivo, Xenopus
Excerpt: as §2

HDAC = assay: HDACi activity (statement, no method)
MeCP2-/y mice [3] = assay: Rett cumulative severity score in MeCP2-/y mice treated with RVL002; format: in vivo; conditions: 50 mg/kg P.O. daily after onset of severe symptoms (P34), vs vehicle
Experimental: (§3) FIGS. 5A-5B. Mice (KO MeCP2^−/y or WT littermates) were treated with 50 mg/kg P.O. RVL002 daily following the onset of severe symptoms at 34 days post-natal (P34).
(§4) Briefly, Xenopus embryos at the 4-cell stage were microinjected with Cas9 protein and guide RNA complex aimed at 3 sites of the MeCP2 gene corresponding to DNA binding and the mutation locations of the most severe patient cases. Embryos could develop into free-swimming tadpoles, and no effect on viability was observed relative to controls. Tadpoles presented a spectrum of behavioral phenotypes, including seizures. qPCR analysis confirmed a range of MeCP2 KO of 5-95% of the cells, and immunostaining of tissue sections indicated mosaic and overall reduction of MeCP2 protein levels and a-tubulin acetylation (Novak et al. 2022). Based on seizure and behavioral screens in RTT tadpoles, we evaluate the tolerability and efficacy of any number of predicted compounds. The top performing drug is vorinostat, a hydroxamic acid pan-Histone Deacetylase inhibitor (HDACi), approved for cutaneous T cell lymphoma (Novak et al., 2022). […]
Mice (MeCP2-/y or WT littermates) were treated with 50 mg/kg P.O. RVL002 daily following the onset of severe symptoms as determined by the Rett cumulative severity scoring system (Guy et al., 2001, 2007).

MeCP2-/y mice [4] = assay: Optomotor assay in MeCP2-/y mice treated with RVL002; format: in vivo; conditions: 50 mg/kg P.O. daily from P34
Experimental: as §3

mecp2-acss3-2KD tadpoles = assay: Tadpole tracking: double knockdown of MeCP2 and ACSS3 (mecp2-acss3-2KD); format: in vivo, Xenopus laevis; conditions: 50 μM every other day from 6 dpf, recorded at 15 dpf
Experimental: FIGS. 6A-6C. […] Wild-type (WT), MeCP2 knockdown (mecp2-KD) and double knockdown of MeCP2 and ACSS3 (mecp2-acss3-2KD) tadpoles, were compared in the presence of absence of 50 μM RVL002 added to the swimming media every other day since 6 dpf.
Using our tadpole tracking system, we evaluated the effect of RVL002 on WT, RTT and tadpoles deficient for both MeCP2 and ACSS3 (FIGS. 6A-6C).

[5] = tested on: brain and muscle gene networks and pathways; assay: RNAseq of brain and muscle of dosed mice analysed with BioNav / Reactome; format: in vivo, C57B/L6 mice
Experimental: FIGS. 2A-2B. BioNav™ plots organized by chemical structure similarity of 40,000 compounds. Differential scores of predicted drugs mimicking vorinostat- or RVLOO2-dosed mouse brain (FIG. 2A) or femoral muscle (FIG. 2B) are plotted. Cluster of HDAC inhibitors is circled (FIG. 2B).
FIGS. 3A-3E. […] Genes associated with network level changes in mice treated with vorinostat or RVL002 were analyzed and sorted according to Reactome.org pathways (91). RVL002 engages pathways in the brain and muscle tissues similar to those resulting from vorinostat dosing (FIG. 3A). […] RVL002 engages MeCP2 pathways in the brain and muscle tissues (FIG. 3E).
Brain and muscle tissues from these mice were submitted to RNA sequencing (RNAseq) and analyzed on our BioNav™ generated from the network model of 40,000 compounds with transcriptomic data. […] By taking our calculated interacting gene sets we identified genes and networks unique to RVL002 (FIGS. 3A-3E). The gene expression profiles of the brains of mice treated with vorinostat is largely due to its highly brain-permeable metabolite and this profile is closely mimicked by RVL002 while RVL002 increased bioavailability and biodistribution is reflected in a proportionally more extensive number of genes whose expression levels are altered. The top 4 pathways are associated with MeCP2 despite using wild-type C57B/L6 mice (Table 2), and several other pathways associated with MeCP2 are identified, albeit with lower statistical significance (Table 3).

RTT tadpole model = assay: Drug screen in the RTT tadpole model (behavior, survival, seizures, toxicity); format: in vivo, Xenopus; conditions: seizures as readout
Excerpt: as §1
RTT tadpole transcriptomes were compared against wild-type (WT) sibling transcriptomes using our proprietary BioNav™ software, which ranked the entirety of compounds from the National Institute of Health (NIH) Library of Integrated Network-Based Cellular Signatures (LINCS) database (Keenan et al., 2018) that were predicted to shift a RTT state to a healthy state. The top candidates were downselected to include only FDA-approved drugs and screened in the RTT tadpole model using behavior, survival, and seizures as an efficacy readout, together with toxicity phenotypes. […] Vorinostat was selected for more detailed evaluation in tadpoles and mouse models. […] Ciliary morphology was also normalized by drug treatment across the entire body, and vorinostat reduced Ib4+ inflammatory cells in the GI tract (Novak et al., 2022).

Mecp2-null male mice [6] = conditions: cited from earlier work; for Rett cumulative severity score, head-to-head comparison: older mice with extensive symptoms prior to treatment; for efficacy when starting treatment after the onset of symptoms: start P36
Mecp2-null male mice [7] = assay: Vorinostat and trofinetide in the MeCP2-null mouse model; format: in vivo; conditions: daily IP from P30
Excerpt: as §4
Using trofinetide as a positive control, we evaluated the feasibility of initiating drug dosing starting at 30 days post-natal (P30), unlike the majority of RTT pre-clinical studies starting before the onset of symptoms. […] We evaluated the comparative efficacy of oral vs. IP dosing of vorinostat in MeCP2-null mice starting at 36 days post-natal (P36), well after the onset of symptoms, to better mimic clinical presentation of RTT patients.

[8] = Pharmacokinetic (PK) assay of vorinostat, oral vs. IP; format: in vivo
microtubule = assay: Microtubule polymerization assays; format: biochemical
[9] = tested on: RTT models (MeCP2 deficit); conditions: cited from earlier work
tadpole proteome = conditions: whole organism Thermal Proteome Profiling; cited from earlier work

O=C(O)CCC(=O)Nc1ccccc1 [RVL002, succinanilic acid]
RVL002/vorinostat Ratio of T1/2 ([1]; mouse, in vivo): 2.6
RVL002/vorinostat Ratio of Tmax ([1]; mouse, in vivo): 0.8
biodistribution, crossing the blood brain barrier ([1]; mouse, in vivo, 50 mg/kg): better biodistribution including in crossing the blood brain barrier
AUC(0-inf) ([1]; mouse, in vivo, ip, 50 mg/kg): 11600 ng·h/mL
AUC(0-t) ([1]; mouse, in vivo, ip, 50 mg/kg): 11800 ng·h/mL
Cmax ([1]; mouse, in vivo, ip, 50 mg/kg): 12300 ng/mL
Tmax ([1]; mouse, in vivo, ip, 50 mg/kg): 0.3 h
half-life ([1]; mouse, in vivo, ip, 50 mg/kg): 3.3 h
reduction in inner dish circular swimming compared to vehicle dosed KDs (RTT tadpoles (MeCP2 KD); RTT KD tadpoles, 50 μM): 78%
epoch-based entropy of swimming behavior (RTT tadpoles (MeCP2 KD); RTT tadpoles, 15-second epoch): rescue the behavior of RTT tadpoles
swimming pattern of treated RTT tadpoles (RTT tadpoles (MeCP2 KD); RTT tadpoles): adopt more circular motion and stop less frequently
tolerability and viability of RTT tadpoles (RTT tadpoles): well tolerated and improves the viability of RTT tadpoles
gene expression changes of vorinostat replicated by RVL002 ([2]; RTT animals): 92.5%
genes with significant expression changes due to vorinostat treatment accounted for by RVL002 treatment ([2]; wild type animals, fold change >2, p<0.05): 100%
HDACi activity (HDAC): lacks HDACi activity
Rett cumulative severity score (MeCP2-/y mice [3]): delayed the progression in severity of behavioral and physiological phenotypes; also recorded: significantly reduce the severity of the Rett syndrome phenotypes
optomotor assay (MeCP2-/y mice [4]): delayed the progression in severity of behavioral and physiological phenotypes
response across exploratory behavior, swimming velocity and number of tadpoles in a school (mecp2-acss3-2KD tadpoles): did not respond
muscle RNAseq differences in the cluster of HDAC inhibitors (BioNav) ([5]; mouse femoral muscle, 50 mg/kg p.o.): acts through non-HDAC-mediated pathways
Reactome pathways of genes unique/responding to RVL002 ([5]; wild-type mice, brain and muscle (Tables 2, 3)): MeCP2-pathway-mediated effect

C[C@@]1(C(=O)N[C@@H](CCC(=O)O)C(=O)O)CCCN1C(=O)CN [Trofinetide, trofinetide] (H-Gly-[αMeP]-Glu-OH)
reversal of RTT symptoms in RTT tadpole screen (RTT tadpole model): showed efficacy, albeit lower than the predicted drugs
Rett cumulative severity score, head-to-head comparison (Mecp2-null male mice [6]): did not improve the cumulative severity score
efficacy when starting treatment after the onset of symptoms (Mecp2-null male mice [6]; trofinetide): failed to show efficacy

O=C(CCCCCCC(=O)Nc1ccccc1)NO [Vorinostat, vorinostat]
Tmax ([1]; C57BL/6J mice, 50 mg/kg intraperitoneally, mean): 0.3 h
biodistribution, crossing the blood brain barrier ([1]; mouse, in vivo, 50 mg/kg): does not efficiently cross the blood brain barrier
AUC(0-inf) ([1]; mouse, in vivo, ip, 50 mg/kg): 640 ng·h/mL
AUC(0-t) ([1]; mouse, in vivo, ip, 50 mg/kg): 632 ng·h/mL
Cmax ([1]; mouse, in vivo, ip, 50 mg/kg): 713 ng/mL
half-life ([1]; mouse, in vivo, ip, 50 mg/kg): 1.3 h
reduction in average inner dish swimming compared to vehicle dosed KDs (RTT tadpoles (MeCP2 KD); RTT KD tadpoles, 5 μM): 42%
swimming pattern of treated RTT tadpoles (RTT tadpoles (MeCP2 KD); RTT tadpoles): patterns suggestive of darting and seizure are still observed
overlap of vorinostat with RVL002 in HDAC associated pathways ([5]; muscle tissues (FIG. 3D)): 97.3%
reversal of RTT symptoms in RTT tadpole screen (RTT tadpole model): stronger reversal of RTT symptoms at nontoxic concentrations
efficacy by Rett cumulative severity scoring system, 50 vs 100 mg/kg (Mecp2-null male mice [7]): better efficacy at 50 mg/kg
Y-maze performance, brain and GI tubulin acetylation normalization, inflammatory cytokine levels, colon goblet cells inflammation (Mecp2-null male mice [7]; vorinostat vs trofinetide 75 mg/kg): outperformed trofinetide
release profile after oral dosing [8]: more sustained release of vorinostat at lower concentrations
microtubule polymerization (microtubule): mild microtubule polymerization effects
abnormal cilia morphology in the olfactory bulb ([9]; MeCP2 deficit): reversed
Ib4+ inflammatory cells in the GI tract ([9]; RTT models): reduced
a-tubulin acetylation in brain and elsewhere in the body ([9]; RTT models): normalized
efficacy when starting treatment after the onset of symptoms (Mecp2-null male mice [6]; IP delivery): failed to show efficacy
Rett cumulative severity score, head-to-head comparison (Mecp2-null male mice [6]): effective improvement
efficacy when starting treatment after the onset of symptoms (Mecp2-null male mice [6]; oral dosing): improved efficacy
α- and β-tubulins, acetyl CoA synthetase 3, ribosome protein S6 as targets (tadpole proteome): significant, direct targets

ivermectin
reversal of RTT symptoms in RTT tadpole screen (RTT tadpole model): stronger reversal of RTT symptoms at nontoxic concentrations
microtubule polymerization (microtubule): mild microtubule polymerization effects
α- and β-tubulins, acetyl CoA synthetase 3, ribosome protein S6 as targets (tadpole proteome): significant, direct targets

Source: patent US20260283990A1, “COMPOUNDS FOR TREATING RETT SYNDROME AND OTHER DISORDERS” (UNRAVEL BIOSCIENCES, INC., priority 2023, published 2026)
